# Where a name gives a salt, the structure may show the parent alone.
# Key:
# Format in all cases: biochemical
# Human plasma [1] = test: Human plasma anticoagulation, thrombin time (TT); settings: concentration required to double the thrombin time, linear extrapolation
# Method: (§1) Dog plasma and rat plasma is obtained from conscious mixed-breed hounds (either sex, Hazelton-LRE, Kalamazoo, Mich., U.S.A.) or from anesthetized male Sprague-Dawley rats (Harlan Sprague-Dawley, Inc., Indianapolis, Ind., U.S.A.) by venipuncture into 3.8 percent citrate. Fibrinogen is prepared from in-date ACD human blood as the fraction I-2 according to previous procedures and specifications. […] Human fibrinogen is also purchased as 98 percent pure/plasmin free from American Diagnostica, Greenwich, Conn. Coagulation reagents ACTIN, Thromboplastin, and Human plasma are from Baxter Healthcare Corp., Dade Division, Miami, Fla. Bovine thrombin from Parke-Davis ([…], Mich.) is used for coagulation assays in plasma.
# (§2) Coagulation assay procedures are as previously described. […] A CoAScreener coagulation instrument (American LABor, Inc.) is used for all coagulation assay measurements. The prothrombin time (PT) is measured by adding 0.05 mL saline and 0.05 mL Thromboplastin-C reagent to 0.05 mL test plasma. The activated partial thromboplastin time (APTT) is measured by incubation of 0.05 mL test plasma with 0.05 mL Actin reagent for 120 seconds followed by 0.05 mL CaCl2 (0.02M). The thrombin time (TT) is measured by adding 0.05 mL saline and 0.05 mL thrombin (10 NIH units/mL) to 0.05 mL test plasma. The compounds of Formula I are added to human or animal plasma over a wide range of concentrations to determine prolongation effects on the APTT, PT, and TT assays. Linear extrapolations are performed to estimate the concentrations required to double the clotting time for each assay.
# Human plasma [2] = test: Human plasma anticoagulation, activated partial thromboplastin time (APTT); settings: concentration required to double the APTT, linear extrapolation
# Method: as §1, §2
# Human plasma [3] = test: Human plasma anticoagulation, prothrombin time (PT); settings: concentration required to double the PT, linear extrapolation
# Method: as §1, §2
Compound,Human Plasma Anticoagulation 2× Clotting time (ng/mL) TT (Human plasma [1]),Human Plasma Anticoagulation 2× Clotting time (ng/mL) APTT (Human plasma [2]),Human Plasma Anticoagulation 2× Clotting time (ng/mL) PT (Human plasma [3])
"N=C(N)NCCCNC(=O)[C@@H]1CCCN1C(=O)[C@H](N)Cc1ccccc1 [Example 7, D-Phe-Pro-NH(CH2)3 NHC(NH)NH2.HCl]",490 ng/mL,–,–
"N=C(N)C1CCC(CNC(=O)[C@@H]2CCCN2C(=O)[C@@H](CC2CCCCC2)NCC(=O)O)NC1 (stereo partly drawn) [Example 67, HO2 CCH2 -D-Cha-Pro-2-NHCH2 -5-amidinopiperidine.HCl]",34. ng/mL,"1,800 ng/mL","1,300 ng/mL"
"Cl.O=C(O)CN[C@H](CC1CCCCC1)C(=O)N1CCC[C@H]1C(=O)NCCC1=CCNCC1 [Example 59, HO2 CCH2 -D-Cha-Pro-4-NHCH2 CH2 -3,4-dehydropiperidine.HCl]",420 ng/mL,"5,500 ng/mL","7,000 ng/mL"
"N=C(N)c1ccc(CNC(=O)[C@@H]2CCCN2C(=O)[C@H](NCC(=O)O)C2CCCCC2)cc1 [Example 86, HOOCCH2 -D-Chg-Pro-p-NHCH2 C6 H4 C(NH)NH2.HCl]",4 ng/mL,81 ng/mL,180 ng/mL
"N=C(N)Nc1ccc(CNC(=O)[C@@H]2CCCN2C(=O)[C@@H]2NCC[C@@H]3CCCC[C@@H]32)cc1 [Example 38, D-1-Piq-Pro-p-NHCH2 C6 H4 NHC(NH)NH2.2HCl]",540 ng/mL,"6,100 ng/mL","11,100 ng/mL"
"Cl.N=C(N)c1ccc(CNC(=O)C2CC3CCCCC3N2C(=O)C(CC2CCCCC2)NCC(=O)O)cc1 [Example 49, HOOCCH2 -D-Cha-cis-Ohi-p-NHCH2 C6 H4 C(NH)NH2.HCl]",5 ng/mL,130 ng/mL,130 ng/mL
"N=C(N)Nc1ccc(CCNC(=O)[C@@H]2CCCN2C(=O)[C@@H]2NCC[C@@H]3CCCC[C@@H]32)cc1 [Example 39, D-1-Piq-Pro-p-NHCH2 CH2 C6 H4 NHC(NH)NH2.2HCl]","5,300 ng/mL","69,200 ng/mL","78,600 ng/mL"
"N=C(N)c1ccc(CNC(=O)[C@@H]2CCCN2C(=O)[C@@H](CC2CCCCC2)NCCCC(=O)O)cc1 [Example 85, HOOCCH2 CH2 CH2 -D-Cha-Pro-p-NHCH2 C6 H4 C(NH)NH2.HCl]",4.9 ng/mL,100 ng/mL,197 ng/mL
EtSO2 -D-Phe-Pro-p-NHCH2 CH2 C6 H4 CNH(NH)NH2.HCl [Example 35],"4,500 ng/mL","50,400 ng/mL","78,400 ng/mL"
"Cl.O=C(O)CN[C@H](CC1CCCCC1)C(=O)N1CCC[C@H]1C(=O)NCCCC1=CCNCC1 [Example 60, HO2 CCH2 -D-Cha-Pro-4-NHCH2 CH2 CH2 -3,4-dehydropiperidine.HCl]","3,200 ng/mL","22,200 ng/mL","77,700 ng/mL"
"N=C(N)c1cccc(CNC(=O)[C@@H]2CCCN2C(=O)[C@@H]2NCC[C@@H]3CCCC[C@@H]32)c1 [Example 25, D-1-Piq-Pro-m-NHCH2 --C6 H4 C(=NH)NH2.HCl]","1,430 ng/mL","34,600 ng/mL","40,400 ng/mL"
"N=C(N)c1ccc(CNC(=O)[C@@H]2CCCN2C(=O)[C@@H](CCC2CCCCC2)NCC(=O)O)cc1 [Example 88, HOOCCH2 -D-hCha-Pro-p-NHCH2 C6 H4 C(NH)NH2.HCl]",4 ng/mL,100 ng/mL,200 ng/mL
"Nc1ccc(CNC(=O)[C@@H]2CCCN2C(=O)[C@@H](CC2CCCCC2)NCC(=O)O)cc1F [Example 77, HO2 CCH2 -D-Cha-Pro-4-NHCH2 -2-F-aniline.HCl]",53 ng/mL,"1,600 ng/mL",890 ng/mL
"N=C(N)Nc1cccc(CNC(=O)[C@@H]2CCCN2C(=O)[C@@H]2NCC[C@@H]3CCCC[C@@H]32)c1 [Example 40, D-1-Piq-Pro-m-NHCH2 C6 H4 NHC(NH)NH2.2HCl]","35,100 ng/mL","> 91,000 ng/mL","> 91,000 ng/mL"
"Cl.N=C(N)c1cc(CNC(=O)[C@@H]2CCCN2C(=O)[C@@H](CC2CCCCC2)NCC(=O)O)cs1 [Example 65, HO2 CCH2 -D-Cha-Pro-4-NHCH2 -2-amidinothiophene.HCl]",1 ng/mL,48 ng/mL,–
"CCC(CC)C(=O)N[C@@H](CCS(C)(=O)=O)C(=O)N1CCC[C@H]1C(=O)NCc1ccc(C(=N)N)cc1 [Example 91, (C2 H5)2 CHCO-Met(O2)-Pro-p-NHCH2 C6 H4 C(NH)NH2.HCl]",63 ng/mL,"3,000 ng/mL","3,500 ng/mL"

Compound,Human Plasma Anticoagulation 2× Clotting time (ng/mL) TT (Human plasma [1]),Human Plasma Anticoagulation 2× Clotting time (ng/mL) APTT (Human plasma [2]),Human Plasma Anticoagulation 2× Clotting time (ng/mL) PT (Human plasma [3])
"Cl.Nc1ccc(CCNC(=O)[C@@H]2CCCN2C(=O)[C@H](N)Cc2ccccc2)cc1 [Example 14, D-Phe-Pro-p-NHCH2 CH2 C6 H4 NH2.HCl]","21,000 ng/mL",–,–
"Nc1ccc(CCNC(=O)[C@@H]2CCCN2C(=O)[C@@H](CC2CCCCC2)NCC(=O)O)cc1 [Example 63, HO2 CCH2 -D-Cha-Pro-4-NHCH2 CH2 C6 H4 NH2.HCl]",680 ng/mL,–,–
"CCS(=O)(=O)N[C@H](Cc1ccccc1)C(=O)N1CCC[C@H]1C(=O)NCCc1ccc(C(=N)N)cc1 [Example 26, EtSO2 -D-Phe-Pro-p-NHCH2 CH2 --C6 H4 C(=NH)NH2.HCl]",37 ng/mL,870 ng/mL,750 ng/mL
"CCOC(=O)N[C@H](Cc1ccccc1)C(=O)N1CCC[C@H]1C(=O)NCCCCN=C(N)N.Cl [Example 3, EtOCO-D-Phe-Pro-Agm.HCl]",590 ng/mL,–,–
"NCc1ccc(CNC(=O)[C@@H]2CCCN2C(=O)[C@H](N)Cc2ccccc2)cc1 [Example 10, D-Phe-Pro-p-NHCH2 C6 H4 CH2 NH2.HCl]",420 ng/mL,–,–
"N=C(N)NCCCCCNC(=O)[C@@H]1CCCN1C(=O)[C@H](N)Cc1ccccc1 [Example 6, D-Phe-Pro-NH(CH2)5 NHC(NH)NH2.HCl]",390 ng/mL,–,–
"Cl.NCc1cccc(CNC(=O)[C@@H]2CCCN2C(=O)[C@H](N)Cc2ccccc2)c1 [Example 11, D-Phe-Pro-m-NHCH2 C6 H4 CH2 NH2.HCl]","8,800 ng/mL",–,–
"Cl.NC[C@H]1CC[C@H](CNC(=O)[C@@H]2CCCN2C(=O)[C@H](N)Cc2ccccc2)CC1 (relative stereo) [Example 12, D-Phe-Pro-NHCH2 -trans-4-(aminomethyl)cyclohexane.HCl]","1,700 ng/mL",–,–
"CCS(=O)(=O)N[C@H](CC1CCCCC1)C(=O)N1CCC[C@H]1C(=O)NCCCCN=C(N)N.Cl [Example 2, EtSO2 -D-Cha-Pro-Agm.HCl]",170 ng/mL,–,–
D-Phe-Pro-p-NHCH2 C6 H4 C(NH)NH2.HCl [Example 15],9 ng/mL,89 ng/mL,–
"Nc1ccc(CNC(=O)[C@@H]2CCCN2C(=O)[C@@H](CC2CCCCC2)NCC(=O)O)cc1 [Example 62, HO2 CCH2 -D-Cha-Pro-4-NHCH2 C6 H4 NH2.HCl]",54 ng/mL,–,–
"N=C(N)NCCCCCCNC(=O)[C@@H]1CCCN1C(=O)[C@H](N)Cc1ccccc1 [Example 5, D-Phe-Pro-NH(CH2)6 NHC(NH)NH2.HCl]","30,000 ng/mL",–,–
"Cl.NC(N)=NC/C=C/CNC(=O)[C@@H]1CCCN1C(=O)[C@H](N)Cc1ccccc1 (relative stereo) [Example 8, D-Phe-Pro-NHCH2 -trans-CH=CHCH2 NHC(NH)NH2.HCl]",130 ng/mL,–,–
"N=C(N)NCc1ccc(CNC(=O)[C@@H]2CCCN2C(=O)[C@H](N)Cc2ccccc2)cc1 [Example 9, D-Phe-Pro-p-NHCH2 C6 H4 CH2 NHC(NH)NH2.2TFA]","> 91,000 ng/mL",–,–
"Nc1ccc(CNC(=O)[C@@H]2CCCN2C(=O)[C@H](N)Cc2ccccc2)cc1 [Example 13, D-Phe-Pro-p-NHCH2 C6 H4 NH2.HCl]",660 ng/mL,–,–
